# Laboratory results as given in patent US10322143B2, “Inhibitors of ADAMTS4 or ADAMTS5 for use in preventing or treating cardiac remodeling and chronic heart failure” (Universitetet i Oslo, priority 2013, dated 2019).
# System: versican
# Assay: Versican DPEEAE fragments and full-length versican in myocardial ECM fractions (immunoblotting), aortic banding rats
# Format: in vivo, rat
# Method: Three days after AB, rats were stratified by the gradient over the stenosis to ensure similar degree of cardiac stress. Two and two stratified rats were randomized to either 6 mg/kg of the sulfated polysaccharide sodium pentosan polysulfate (PPS) (Interfarm AS, Norway) or vehicle (0.9% NaCl) injected subcutaneously every third day. […] Six weeks after AB or sham operation, the rats were examined by echocardiography and postmortem analysis, performed by experienced investigators (IS, JMA) blinded to treatment group.
# Proteins from rat myocardium were extracted as previously described (Didangelos et al. J Biol Chem 2012. 287(23):19341-5). Briefly, proteins were separated into three fractions; NaCl-soluble extracellular proteins (NaCl-ECM) and guanidine-soluble extracellular proteins (G-ECM), containing the fluid and matrix compartment of ECM respectively, in addition to cellular and cell-linked proteins dissolvable in SDS (SDS-samples) (FIG. 6D). NaCl-ECM and G-ECM were deglycosylated to remove GAG chains using 4 mU/NaCl-sample and 12 mU/G-sample of Chondroitinase ABC (from Proteus vulgaris, G3667, Sigma-Aldrich, MO) and 5 mU/NaCl-sample and 15 mU/G-sample of keratanase (endo-β-galactosidase from Bacteroides fragilis, G6920, Sigma-Aldrich), as previously described (Didangelos A et al. supra).
# Protein concentrations were measured using the Micro BCA Protein Assay Kit (Pierce/Thermo Scientific, IL). Sample buffer was mixed with 5-25 μg (G-samples) or 30 μg (NaCl and SDS samples) of the protein lysate, denatured at 96° C. for 10 min, and run on 1.5 mm 4-12% Bis-Tris gradient gels (Nupage, Invitrogen, CA), with MOPS SDS running buffer until the 37 kDa protein marker reached the bottom of the gel. All protein extracts were loaded blinded to group.
# SDS-PAGE and immunoblotting was performed as described in the Criterion BioRad protocol, using polyvinylidene fluoride (PVDF) membranes (GE Healthcare Life Sciences, Uppsala, Sweden). Blots were developed using the ECL Plus Western Blotting Detection System (GE Healthcare) and visualized in the Las-4000 mini from Fujifilm (Japan). Before reprobing, stripping was performed using the Restore Western Blot Stripping Buffer (21059, Thermo Scientific, IL). […]
# Membranes were blocked in 5% non-fat dry-milk (170-6404, BioRad) overnight. […] Primary antibodies used were against ADAMTS4 (PA1-1750, Thermo Pierce Scientific, IL), versican full length (sc-25831, Santa Cruz Biotechnology, CA) and versican fragments displaying the neo-epitope DPEEAE (ab19345, Abcam, Cambrigde, UK) resulting from ADAMTS cleavage by ADAMTS1/4 (Sandy J D et al. J Biol Chem 2001. 276(16):13372-8; Didangelos A et al. supra), and quantified by ImageJ.
# [1] = PPS-treated AB-rats, normalized to control, median (interquartile range)
substance,measurement,setting,value
pentosan polysulfate [PPS],change of p150 versican in NaCl-ECM compared to vehicle-treated AB-rats,"PPS-treated AB-rats vs vehicle-treated AB-rats, p=0.05",halved
same,level of full-length versican (p400) in G-ECM,[1],1.17 (0.77-6.85)
same,level of p150 versican DPEEAE fragment in NaCl-ECM,[1],1.08 (0.69-1.63)
same,p70 versican fragment level in G-ECM,"PPS-treated sham, normalized to control, median (interquartile range)",0.34 (0.28-0.61)
